Test results published in patent publication US20020193425A1, “Cancer chemopreventative compounds and compositions and methods of treating cancers” (priority 2001, published 2002).
Like-named read-outs stand apart in the source and are kept apart here.

How the values were obtained:
[1] = test system: HL-60 (human promyelocytic) cells; test: HL-60 cell differentiation of quassinoids, NBT reduction; assay type: cell-based
Procedure: (§1) Induction of differentiation was determined by the ability of treated cells to produce superoxide anions (nitroblue tetrazolium (NBT)-reduction), a functional marker of mature macrophages or granulocytes. Proliferation capacity is equivalent to cell growth and was measured by incorporation of [3H]thymidine into DNA over a period of 18 h, and cytotoxic activity was evaluated by the loss of membrane integrity as shown by trypan blue exclusion. […] Although members of the brusatol and glaucarubolone series were active, when comparing members of both series that varied only in the positioning of the epoxymethano bridge, great differences were noted, as shown with yadianzolide C (5) and glaucarubolone (24), and analogues 4 (brusatol series) and 32 (glaucarubolone series).
(§2) HL-60 (human promyelocytic) cells were tested using a 4-day incubation protocol. In brief, cells in log phase (approximately 10^6 cells/mL) were diluted to […] and preincubated overnight (18 h) in 24-well plates to allow cell-growth recovery. Then, samples dissolved in DMSO were added, keeping the final DMSO concentration at 0.1% (v/v). Control cultures were treated with the same concentration of DMSO. After 4 days of incubation, the cells were analyzed to determine the percentage of cells undergoing maturation as determined by NBT reduction. Concomitantly, the effect on viability and proliferation of HL-60 cells was determined. In each experiment, 1α, 25-dihydroxyvitamin D3 (EC50=0.01 μM) and brusatol (EC50=0.07 μM) were used as reference controls. EC50 and IC50 values were calculated using 5-7 test concentrations (in duplicate), and consistent results were obtained, indicating the data reported for the related quassinoids are reliable.
(1) Nitroblue Tetrazolium (NBT) Reduction. Evaluation of NBT reduction was used to assess the ability of sample-treated HL-60 cells to produce superoxide when challenged with 12-O-tetradecanoylphorbol 13-acetate (TPA). A 1:1 v/v) mixture of a cell suspension (10^6 cells) and TPA/NBT solution (2 mg/mL NBT and 1 μg/mL TPA in phosphate buffered solution) was incubated for 1 h at 37° C. Positive cells reduce NBT yielding intracellular black-blue formazan deposits, which were quantified by microscopic examination of >200 cells. Results were expressed as a percentage of positive cells.

[2] = test system: human promyelocytic leukemia (HL-60) cells; conditions: cited from earlier work
[3] = test system: HL-60 (human promyelocytic) cells; test: HL-60 cell proliferation assay of quassinoids, [3H]thymidine incorporation; assay type: cell-based; conditions: for IC50: 4-day incubation, [3H]thymidine incorporation, read-out: inhibition of proliferation (IC50)
Procedure: as §1, §2
(3) Cell Proliferation Assay. […] Cells were then collected on glass fiber filters (90×120 mm; Wallac, Turku, Finland) using a TOMTEC Harvester 96®.

[4] = HL-60 cytotoxicity of quassinoids, trypan blue exclusion; assay type: cell-based, human; conditions: human, HL-60 cells; HL-60; 4-day incubation; trypan blue exclusion; read-out: cytotoxicity (IC50)
Procedure: as §1, §2
(§3) (2) Cytotoxicity. Since loss of membrane integrity is an early feature of necrotic cells and a late feature of apoptotic cells, trypan blue, a […] blue dye, was used to stain cells with compromised plasma membranes, while leaving intact cells unstained. Cells […] of trypan blue (0.2% w/v in PBS), incubated for at least 5 min at room temperature, and counted using a hematocytometer. Viability percentages were calculated with duplicate samples.

[5] = test system: DMBA-induced preneoplastic lesion formation in mouse mammary organ culture; test: Inhibition of DMBA-induced preneoplastic lesion formation in mouse mammary organ culture (MMOC); assay type: cell-based; conditions: for % inhibition of DMBA-induced preneoplastic lesion formation: quassinoid (2 μM), in comparison with a DMBA control
Procedure: The identification of potential inhibitors of DMBA-induced preneoplastic lesion formation in mammary organ culture has been described previously. Briefly, four-week old BALB/c female mice (Charles River) were pretreated for nine days with 1 μg estradiol and 1 mg progesterone. The thoracic pair of mammary glands was dissected on silk and incubated with growth-promoting hormones in the presence of test compounds (2 μM) for 10 days. DMBA ([…]) was included in the medium (containing […]) for 24 hours on the third day of culture to induce preneoplastic mammary lesions. Following 10 days of growth promoting phase, all hormones except insulin were withdrawn and the glands were allowed to regress to lobuloalveolar structures during a 14-day incubation period. Glands then were fixed in 10% buffered formalin and stained with alum carmine. Incidence of lesion formation (percentage of glands per group with mammary lesions) was recorded, and percent inhibition was calculated by comparison with the DMBA control group that was not treated with test sample. Active samples induce 60% inhibition, based on historical controls.

[6] = test system: HL-60 (human promyelocytic) cells; test: HL-60 cytotoxicity of quassinoids, trypan blue exclusion; assay type: cell-based; conditions: HL-60; 4-day incubation; trypan blue exclusion
Procedure: as §1, §2, §3

[7] = HL-60, 4-day incubation, NBT-reduction, read-out: induction of differentiation (EC50)
[8] = Homo sapiens, HL-60, 96 h, read-out: induction of differentiation (EC50, μM)

Compound | EC50 [1, 7] | IC50 [3] | IC50 [6] | further results
C=C1/C(=C\C=C2/CCC[C@]3(C)[C@@H]([C@H](C)CCCC(C)(C)O)CC[C@@H]23)C[C@@H](O)C[C@@H]1O [1α, 25-dihydroxyvitamin D3, reference compound] | 0.01 µM | – | – | –
C[C@@]1(CO)[C@H](O)CC[C@@]2(C)[C@H]1CC[C@H]1C[C@@H]3C[C@@]12CC[C@]3(O)CO [aphidicolin, reference compound] | – | – | – | maturation of HL-60 cells ([1]; data not shown): incapable of inducing maturation
COc1cc([C@H]2Oc3c(OC)cc4ccc(=O)oc4c3O[C@@H]2CO)ccc1O [cleomiscosin A] | – | – | – | activity in the HL-60 test system [2]: inactive
CC[C@@](C)(OC(C)=O)C(=O)O[C@H]1C(=O)O[C@@H]2C[C@H]3C(C)=CC(=O)[C@@H](O)[C@]3(C)[C@H]3[C@@H](O)[C@H](O)[C@@]4(C)OC[C@]32[C@@H]14 [compound 3, quassimarin] | – | – | – | EC50 [1, 8]: 0.09 ± 0.001 µM; IC50 ([3]; Homo sapiens): 60 ± 5 nM; selectivity index ([3]; ratio of cytotoxic IC50 over antiproliferative IC50): 2.2 ± 0.5; IC50 at 4 days [4]: 130 ± 8 nM
CC[C@@H](C)C(=O)O[C@H]1C(=O)O[C@@H]2C[C@H]3C(C)=CC(=O)[C@@H](O)[C@]3(C)[C@H]3[C@@H](O)[C@H](O)[C@@]4(C)OC[C@]32[C@@H]14 [compound 4, simalikalactone D] | – | – | – | EC50 [1, 8]: > 0.2 µM; IC50 ([3]; Homo sapiens): > 200 nM; IC50 at 4 days [4]: 200 ± 40 nM
CC[C@@](O)(CC(=O)O[C@@H]1C(=O)O[C@@H]2C[C@@H]3C(C)=CC(=O)[C@H](O)[C@]3(C)[C@H]3[C@]4(O)OC[C@]32[C@@H]1[C@@H](C)[C@H]4O)C(C)C [compound 10, Peninsularinone] | 0.019 ± 0.0004 µM | 9 ± 1 nM | 13 ± 1 nM | activity in the MMOC model ([5]; at concentrations as high as 2 mM): inactive; % inhibition of DMBA-induced preneoplastic lesion formation [5]: 44%
CC1=CC(=O)[C@@H](O)[C@]2(C)[C@H]3[C@]4(O)OC[C@]35[C@H]([C@@H](C)[C@H]4O)[C@@H](O)C(=O)O[C@@H]5C[C@@H]12 [compound 24, glaucarubolone] | ~1.3 µM | 400 ± 30 nM | 1300 ± 200 nM | –
CC[C@](C)(O)C(=O)O[C@H]1C(=O)O[C@@H]2C[C@H]3C(C)=CC(=O)[C@@H](O)[C@]3(C)[C@H]3[C@@]4(O)OC[C@]32[C@@H]1[C@@H](C)[C@H]4O [compound 25, glaucarubinone] | 1.8 ± 0.09 µM | 500 ± 90 nM | 1000 ± 100 nM | –
CC1=CC(=O)[C@@H](O)[C@]2(C)[C@H]3[C@@]4(O)OC[C@@]35[C@@H](C[C@@H]12)OC(=O)C[C@H]5[C@@H](C)[C@H]4O [compound 26, chaparrinone] | ~2.4 µM | 1200 ± 200 nM | 5000 ± 300 nM | % inhibition of DMBA-induced preneoplastic lesion formation [5]: 25%
bruceoside B | – | – | – | activity in the HL-60 test system [2]: inactive
samaderin B [compound 48] | 1 ± 0.02 µM | 400 ± 50 nM | > 2000 nM | % inhibition of DMBA-induced preneoplastic lesion formation [5]: 0%
yadanziolide C [compound 5] | 10 ± 1.5 µM | 1500 ± 80 nM | > 10000 nM | –
